Experimental data published in the METLIN SMRT retention time set (Domingo-Almenara et al. 2019).

Experiment: gradient 5% acetonitrile 3 min, to 50% in 2 min, to 85% in 15 min, held 3 min, 100 µL/min
Details: column: Zorbax Extend-C18 2.1 x 50 mm; eluents: water / acetonitrile, 0.1% formic acid
How it was run: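 In both positive and negative ionization mode, a quadrupole time-of-flight mass spectrometer coupled to HPLC analyzed pure standards run in mixtures of ~100 molecules. The Zorbax Extend-C18 column (2.1 × 50 mm, 1.8 μm) was operated at 100 μL/min with water and acetonitrile, each containing 0.1% formic acid. The dead volume was 40 μL and the dwell volume 900 μL. Retention time came from adduct peaks that were computationally picked and individually inspected by hand.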

SMILES | RP-LC retention time [s]
COc1ccccc1-c1nc(-c2ccc3c(c2)nnn3CCN(C)C)no1 | 644
O=S(=O)(c1ccc(Cl)s1)N1CCC(c2nnc(-c3ccco3)o2)CC1 | 868
CCOC(=O)c1noc2ncnc(N3CCCCCC3)c12 | 954
CCN1CCN(C(=O)Nc2ccc(Br)cc2)c2cccnc21 | 666
Cc1nn(C)cc1CN(C)C(=O)c1cc2c(=O)n(CC(C)C)c3ccccc3n2n1 | 808
COC[C@@H]1CN(C(=O)c2cc(C)oc2C)C[C@H]1c1nc(C2CC2)no1 | 815
Cc1cccc(C(=O)N2CCc3ccc(CNC(=O)NCC4CCCO4)cc32)c1 (stereo not drawn) | 894
Cc1oc(-c2ccc(C(=O)NCCN3CCN(C)CC3)cc2)nc1CSc1ccccc1 | 661
COc1cccc(NC(=O)N2CCC3(CC2)NC(=O)c2cc(Cl)ccc2N3C)c1 | 780
CCN(CC)c1nc(-c2ccc([N+](=O)[O-])cc2)nc2ccccc12 | 771
O=S(=O)(c1ccc(F)cc1F)N1CCc2nc(-c3ccc(F)cc3)ncc2C1 | 1110
Cc1ccc(-c2cn3c(C(=O)Nc4nc(C)cs4)csc3n2)cc1 | 848
Cc1ccc(Nc2c(-c3ccc(N4CCOCC4)cc3)nc3cccc(C)n23)cc1 | 746
COC1CCC12CCN(C(=O)c1ccc(Cc3c(C)noc3C)o1)CC2 (stereo not drawn) | 800
O=C(Nc1cc(F)ccc1F)Nc1c(-c2ccc(F)cc2)nc2ccccn12 | 706
CCCS(=O)(=O)Nc1ccc(F)c(C(=O)c2c[nH]c3ncc(Cl)cc23)c1F | 878
Cc1ccc(-c2cc3c4nnc(SCC(=O)Nc5ccc(F)cc5)n4ccn3n2)cc1C | 931
Cc1ccc2nc(C(=O)NCc3ccc(N(C)C)cc3)cn2c1 | 565
Cc1ccc(-c2csc(NC(=O)CCCOc3ccc(Cl)cc3Cl)n2)cc1 | 1290
Cc1nn(-c2ccccc2)cc1C(=O)N1CCC(CC(=O)N2CCOCC2)CC1 | 669
CC1=C(c2ccccc2)S(=O)(=O)N=C1N1CCCN(C(=O)NC2CCCCC2)CC1 | 817
COc1cc(/C=C(\OC(C)=O)c2ccc3c(c2)OCO3)cc(OC)c1OC | 924
O=C(c1cn2nc(Cl)ccc2n1)N1CCN(c2ccccc2Cl)CC1 | 922

SMILES | RP-LC retention time [s]
COc1ccccc1NC(=O)Cn1ccc2ccc(-c3nnc(C)o3)cc21 | 811
CCCN1CCN(C(=O)C2CCCN(c3nc4cccnc4s3)C2)CC1 (stereo not drawn) | 593
O=S(=O)(NCC(c1cccnc1)N1CCN(c2ccc(F)cc2)CC1)c1cccs1 (stereo not drawn) | 618
CCC(=O)NCc1nc2c(n1CC)CN(C(=O)c1ccc(Cl)cc1)CC2 | 529
O=S(=O)(Nc1ccc(N2CCOCC2)cc1)C1CC1 | 623
CN(C)C(=O)C1CN(C(=O)c2ccc(Br)cc2)CC12CCOCC2 (stereo not drawn) | 631
O=C(COc1ccc(-c2nnc3n2CCCC3)cc1)Nc1ccc(Br)cc1 | 734
Cc1ccccc1NC(=O)NCCc1nc2cccnc2n1C1CCCC1 | 708
CCCCN1CCN(C(=O)CCC2CCCN(c3cc(NC4CC4)ncn3)C2)CC1 (stereo not drawn) | 565
CCN(Cc1ccccc1)C(=O)Cn1nc2c(N3CCC(C)CC3)nccn2c1=O | 861
O=C(CCC(=O)N1CCNc2ccccc2C1)N1CCOCC1 | 585
CCOc1ccc(-c2cn3ccn(-c4cc(C)cc(C)c4)c(=O)c3n2)cc1 | 965
Cc1ccc(C(=O)N2CCC(c3nc(-c4ccncc4)n[nH]3)CC2)s1 | 597
COc1ccc(OC)c(NC(=O)N2CCN(CCn3c(C(F)(F)F)nc4cccnc43)CC2)c1 | 642
CCCCNC(=O)Cc1nnc(-c2ccc(OC)cc2)o1 | 736
Cc1cc2nc(C(=O)Nc3ccc(F)c(F)c3)cc(C)n2n1 | 986
Cc1cc(C)n(-c2ccc(C(=O)NCc3ccc(C(C)C)cc3)cn2)n1 | 1100
Cc1ccc(-c2nc3ccccn3c2NC(=O)NCc2ccco2)cc1 | 629
Cc1ncsc1CN1CCCC(c2nncn2-c2ccccc2)C1 (stereo not drawn) | 496
CCOc1ccc(S(=O)(=O)N2CCCC(C(=O)N3CCN(c4ccccc4)CC3)C2)cc1 (stereo not drawn) | 1020
COc1cc(-c2noc(Cn3ccnc3C)n2)cc(OC)c1OC | 596
COc1cccc(C(=O)Nc2nc(-c3ccc4c(c3)NC(=O)C(C)O4)c(C)s2)c1 (stereo not drawn) | 964
CCCc1cc(=O)n(CC(=O)Nc2ncccc2C)cn1 | 578

SMILES | RP-LC retention time [s]
Cc1cccc(OCc2ccc(-c3nc(C#N)c(NCCCN(C)C)o3)o2)c1 | 728
O=C(NCc1ccc(N2CCCCCC2)nc1)c1cncc(Br)c1 | 603
Cc1nc([N+](=O)[O-])cn1-c1nc2ccccn2c1[N+](=O)[O-] | 753
COC(=O)c1cnc2nc(C)ccc2c1Nc1ccc(F)c(Cl)c1 | 717
CCCS(=O)(=O)NCCNc1cc(-n2nc(C)cc2C)ncn1 | 679
CC1CCc2onc(C(=O)N3CCN(c4ccccn4)CC3)c2C1 (stereo not drawn) | 650
O=[N+]([O-])c1ccc(-c2csc(Nc3ccccc3)n2)cc1 | 1130
COCc1cn(C2CN(C(=O)c3ccc(OC)nc3)C2)nn1 | 610
O=S(=O)(Nc1ccccc1)c1ccc(-c2nnc(C3CCC3)o2)o1 | 883
CCOc1ccccc1NC(=O)C1CCCN(S(=O)(=O)c2cc(-c3noc(C)n3)cs2)C1 (stereo not drawn) | 1060
Cc1cccc(Nc2nc(C(=O)NCCc3ccco3)nc3ccccc23)c1 | 808
CCCN(CCC)C(=O)C1CCC(=O)N1S(=O)(=O)c1ccc(C)cc1 (stereo not drawn) | 943
CNC(=O)[C@@H]1CN(C(=O)CCc2nc3ccccc3s2)C[C@H]1c1n[nH]c(C)n1 | 607
O=C1CCCN1CCCN1C(=O)[C@H]2CN(Cc3ccccc3OC(F)(F)F)C[C@H]2C1=O | 687
CCc1nc2c(NC(=O)c3ccccc3Br)cccn2n1 | 773
CC1CCCCN1CCNC(=O)c1cc(S(=O)(=O)N2CCCCC2)ccc1Cl (stereo not drawn) | 651
CCOc1cc(C(=O)Nc2cc(=O)n(C)c(=O)n2C)cc(OCC)c1OCC | 691
CCOC(=O)c1cc(S(=O)(=O)N2CCCC2C(=O)Nc2cc(F)ccc2F)cn1C (stereo not drawn) | 982
O=C(NCC1(O)CCc2ccccc21)Nc1ccccc1Cl (stereo not drawn) | 762
CCc1nnc2ccc(-c3noc(-c4cccc(Cl)c4)n3)cn12 | 1070
Cc1cccc(-c2nocc2CCC(=O)NC(C)c2ccc(F)cc2)c1 (stereo not drawn) | 965
C=CCc1ccccc1OCC(O)CNC (stereo not drawn) | 566
